Results taken from BindingDB's records for doi:10.7270/Q2TX3CTT (Broad Institute, 2010).
Structures can show the parent of a compound that is named as a salt.

Target: Glycogen synthase kinase-3 beta (Homo sapiens, UniProt P49841)
Experiment: concentration-response blocking of human GSK3B – biochemical, luminescence, cell-free homogeneous, retest, dose response (AID 434954)

Glycogen synthase kinase-3 beta, sequence (P49841 whole entry): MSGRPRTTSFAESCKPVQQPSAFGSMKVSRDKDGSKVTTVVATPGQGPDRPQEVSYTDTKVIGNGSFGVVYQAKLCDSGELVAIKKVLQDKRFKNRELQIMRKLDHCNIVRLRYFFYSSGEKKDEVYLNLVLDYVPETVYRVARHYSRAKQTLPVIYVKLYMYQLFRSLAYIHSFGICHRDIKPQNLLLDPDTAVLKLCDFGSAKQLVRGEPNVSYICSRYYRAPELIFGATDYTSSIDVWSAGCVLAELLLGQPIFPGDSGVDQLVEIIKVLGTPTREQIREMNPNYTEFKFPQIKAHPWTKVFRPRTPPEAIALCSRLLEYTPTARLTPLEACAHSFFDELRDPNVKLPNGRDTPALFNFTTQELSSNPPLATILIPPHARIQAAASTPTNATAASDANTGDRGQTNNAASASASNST

| SMILES | EC50 [µM] |
| --- | --- |
| CC(C)(C)NC1=NN=C(c2ccc(Cl)cc2)CS1 [N-tert-butyl-5-(4-chlorophenyl)-6H-1,3,4-thiadiazin-2-amine] | > 300 |
| Cc1occc1C(=O)N1CCN(C(=O)C2CCCO2)CC1 (stereo unspecified) [1-(2-methyl-3-furoyl)-4-(tetrahydro-2-furanylcarbonyl)piperazine] | > 300 |
| Cc1ccccc1CN=Nc1ncnc2nc[nH]c12 [MLS000419110] | 17.2 |
| Cc1ccccc1NC(=O)Nc1ccccn1 [1-(2-methylphenyl)-3-pyridin-2-ylurea] | > 300 |
| Cc1ccc(S(=O)(=O)NCC(=O)N(CCc2ccccc2)CC(=O)NCc2ccco2)cc1 [N-[2-(furan-2-ylmethylamino)-2-oxoethyl]-2-[(4-methylphenyl)sulfonylamino]-N-(2-phenylethyl)acetamide] | > 300 |
| COC(=O)c1nnn(-c2nonc2N)c1CSCCO [1-(4-amino-1,2,5-oxadiazol-3-yl)-5-[(2-hydroxyethylthio)methyl]-4-triazolecarboxylic acid methyl ester] | 6.22 |
| Cc1ccc2c(c1)C1CN(C)CCC1N2C(=S)Nc1ccc(Cl)cc1Cl (stereo unspecified) [SMR000385491] | > 300 |
| Cc1[nH]nc2c1C(c1ccc(N(C)C)cc1)C1C(=O)CC(C)(C)CC1=N2 (stereo unspecified) [SMR000343282] | 28 |
| O=C(NN=Cc1cc(Br)ccc1O)c1ccccc1Cl [N'-[(E)-(3-bromo-6-oxocyclohexa-2,4-dien-1-ylidene)methyl]-2-chlorobenzohydrazide] | > 300 |
| Nc1nc(NCCO)nc(NC2CCCCC2)c1[N+](=O)[O-] [2-[[4-amino-6-(cyclohexylamino)-5-nitro-2-pyrimidinyl]amino]ethanol] | 1.36 |
| Cc1ccc(Nc2nc(N)c([N+](=O)[O-])c(NCCO)n2)cc1C [SMR000436043] | 14.6 |
| O=C(CCS(=O)(=O)Cc1ccccc1)Nc1ncc([N+](=O)[O-])s1 [SMR000669229] | 57.1 |
| COc1ccccc1N1CCN(CCCNC(=O)C2CCCN(c3ncnc4c3nc3n4CCCCC3)C2)CC1 (stereo unspecified) [N-[3-[4-(2-methoxyphenyl)piperazin-1-yl]propyl]-1-(7,8,9,10-tetrahydro-6H-purino[9,8-a]azepin-4-yl)piperidine-3-carboxamide] | 156 |
| CC(Cl)C(=O)Nc1ncc(C(F)(F)F)cc1Cl (stereo unspecified) [SMR000152526] | > 300 |
| O=C1Nc2ccccc2C1C=Nc1ccc2c(c1)OCO2 (stereo unspecified) [(3Z)-3-[(1,3-benzodioxol-5-ylamino)methylidene]-1H-indol-2-one] | 11.4 |
| Cc1ccc(SCCc2ccc(C)nc2)cc1 | > 300 |
| CCc1ccc(C2NC(=S)N=C3CC(C)(C)CC(=O)C32)cc1 (stereo unspecified) [MLS000720309] | > 300 |

| SMILES | EC50 [µM] |
| --- | --- |
| C=CCN=C(NC#N)SC [methyl N-cyano-N'-prop-2-enyl-carbamimidothioate] | > 300 |
| Cc1ccc(-n2nc3c(N4CCC(C(=O)N5CCCCCC5)CC4)nnc(C)c3c2C)cc1 [MLS001028811] | > 300 |
| CCOC(=O)C1C(C)=Nc2ncnn2C1c1ccc2c(c1)OCO2 (stereo unspecified) | > 300 |
| CCOC(=O)CSc1ccc2nnc(-c3cccnc3)n2n1 [SMR000018940] | > 300 |
| O=C(NN=Cc1ccc(Br)s1)c1cccnc1 | > 300 |
| Cc1ccnc(NC(=O)Cc2ccc([N+](=O)[O-])cc2)c1 [N-(4-methylpyridin-2-yl)-2-(4-nitrophenyl)ethanamide] | 21.4 |
| Cc1ccsc1CN=Nc1ncnc2nc[nH]c12 [N-[(3-methyl-2-thiophenyl)methylideneamino]-7H-purin-6-amine] | 9 |
| Cc1ccc(C(=O)N/N=C/c2ccc(-c3ccc([N+](=O)[O-])cc3)o2)cn1 [SMR000431371] | > 300 |
| O=c1oc(-c2cccs2)nc2sc3c(c12)CCCC3 [SMR000116853] | > 300 |
| N#Cc1ccccc1CSc1nnc(-c2ccncc2)o1 [2-[(5-pyridin-4-yl-1,3,4-oxadiazol-2-yl)sulfanylmethyl]benzenecarbonitrile] | 20.7 |
| COc1nc(N(C)C)nc(N(C#N)CCOC(C)=O)n1 [2-[cyano-[4-(dimethylamino)-6-methoxy-1,3,5-triazin-2-yl]amino]ethyl ethanoate] | > 300 |
| CC1(C)CC(=O)C=C(Nc2cccc(O)c2)C1 [MLS000108953] | > 300 |
| CN(C)c1nc2c(N)ncnc2n1[C@H]1O[C@@H](CO)[C@H](O)[C@@H]1O [MLS001181978] | > 300 |
| NC(=O)CN(c1ccc([N+](=O)[O-])cc1)S(=O)(=O)c1ccccc1 [2-[N-(benzenesulfonyl)-4-nitroanilino]acetamide] | > 300 |
| CC1CCCN(S(=O)(=O)c2ccc(Br)s2)C1 (stereo unspecified) [SMR000021898] | > 300 |
| CC1CCN(c2oc(-c3ccccc3Cl)nc2C#N)CC1 [SMR000041709] | > 300 |
| CCCN(CCC)Cc1c(C(=O)NN=CCCc2ccccc2)nnn1-c1nonc1N [1-(4-amino-1,2,5-oxadiazol-3-yl)-5-[(dipropylamino)methyl]-N-(3-phenylpropylideneamino)-4-triazolecarboxamide] | 7.47 |

The remaining lines, values ahead:

| EC50 [µM] | SMILES |
| --- | --- |
| > 300 | COc1ccccc1/C=C1\C(=O)Nc2ccccc21 [SMR000523491] |
| 96.9 | CCOc1cccc(-c2c(C(=O)NN=C(C)c3cccs3)nnn2-c2nonc2N)c1 [1-(4-azanyl-1,2,5-oxadiazol-3-yl)-5-(3-ethoxyphenyl)-N-(1-thiophen-2-ylethylideneamino)-1,2,3-triazole-4-carboxamide] |
| > 300 | CCn1nc(NC(=O)c2cccs2)c2cc3ccccc3nc21 [MLS000674383] |
| 39.8 | CC1=C(C#N)C(=O)NC(=O)C1=NNc1ccc(Cl)c(C(=O)O)c1 [MLS001213189] |
| > 300 | CCCCc1cc(=O)oc2c(CN(C)C)c(O)ccc12 [4-butyl-8-[(dimethylamino)methyl]-7-hydroxy-1-benzopyran-2-one] |
| > 300 | COc1cccc(NC(=O)CN(C)C(=O)c2cc(-c3ccc(F)cc3)nc3ccccc23)c1 |
| 48.9 | Cc1cccc(-n2c(=O)c3c4c(sc3n3c(=S)[nH]nc23)CCC4)c1 [1-mercapto-4-(3-methylphenyl)-7,8-dihydro-6H-cyclopenta[4,5]thieno[3,2-e][1,2,4]triazolo[4,3-a]pyrimidin-5(4H)-one] |
| > 300 | CCOC(=O)c1c(C)[nH]c(C)c1C(=O)COC(=O)CNC(=O)c1ccc(OCC)cc1 [4-[2-[2-[[(4-ethoxyphenyl)-oxomethyl]amino]-1-oxoethoxy]-1-oxoethyl]-2,5-dimethyl-1H-pyrrole-3-carboxylic acid ethyl ester] |
| > 300 | COc1ccc(CCNc2c(C=O)c(=O)[nH]c3ccccc23)cc1OC |
| > 300 | CCOC(=O)c1c(-c2ccccc2)oc2ccc(OCC(=O)NNC(=O)CCCC(=O)O)cc12 |
| 28.5 | CCc1cc(=O)oc2cc(OC(C)=O)cc(OC(C)=O)c12 [(5-acetyloxy-4-ethyl-2-oxidanylidene-chromen-7-yl) ethanoate] |
| > 300 | O=C(NCC(c1ccco1)N1CCc2ccccc21)c1cccc([N+](=O)[O-])c1 (stereo unspecified) [SMR000811914] |
| > 300 | CC(=O)C(Sc1ccc2nnc(-c3ccc(F)cc3)n2n1)C(C)=O [SMR000016797] |
| > 300 | COc1ccc(NC(=S)Nc2cccc(Cl)c2Cl)cc1OC |
| 19.5 | CC(=O)N1CCc2c(sc(NC(=O)CN3C(=O)c4ccccc4C3=O)c2C(N)=O)C1 [MLS000419451] |
| 107 | COc1ccc(CC(=O)OCC(=O)Nc2ccc(Cl)cn2)cc1 [MLS000566076] |
| > 300 | COc1ccc(-c2nn(-c3ccccc3)cc2CN=Nc2ccc3ccccc3n2)cc1OC [MLS000388895] |
| > 300 | COc1cccc(OC)c1OCCNCC1COc2ccccc2O1 (stereo unspecified) [WB-4101 hydrochloride] |
| 33.6 | c1ccc(-c2nc(NCCCn3ccnc3)c3ccccc3n2)cc1 [MLS001007021] |

| EC50 [µM] | SMILES |
| --- | --- |
| > 300 | CNC(=O)NC(=O)CSc1nc2ccccc2n1CCOC [2-[1-(2-methoxyethyl)benzimidazol-2-yl]sulfanyl-N-(methylcarbamoyl)ethanamide] |
| > 300 | CC(=O)Nc1ccc(S(=O)(=O)Nc2ccc3c(c2)OCCO3)cc1Cl [MLS000850184] |
| 4.54 | O=C(CCl)Oc1ccc2occ(C(=O)c3cccs3)c2c1 [SMR000121351] |
| 1.23 | C=CCN=C(NC#N)SCC(=O)c1cccc(OC)c1 [[2-(3-methoxyphenyl)-2-oxidanylidene-ethyl] N-cyano-N'-prop-2-enyl-carbamimidothioate] |
| > 300 | COc1cc(/C=C/c2nc3ccc([N+](=O)[O-])cc3s2)ccc1OCC(=O)O [SMR000365317] |
| > 300 | CCOc1ccc(OCC)c(NC(=O)CSc2nnc(C3CC3)n2CC)c1 [MLS001223718] |
| > 300 | COCCn1c(SCC(=O)Nc2ncc(Cl)c(C)c2Cl)nc2ccccc21 [MLS000097567] |
| > 300 | CN(C)C(CNC(=O)c1ccc2ccccc2c1)c1ccco1 (stereo unspecified) [SMR000377096] |
| 4.59 | COC(=O)c1ccc(CSc2ccc3nnc(-c4ccc(F)cc4)n3n2)o1 [5-[[[3-(4-fluorophenyl)-[1,2,4]triazolo[4,3-b]pyridazin-6-yl]thio]methyl]-2-furancarboxylic acid methyl ester] |
| > 300 | Cc1cc(-c2onc3ccc(Cl)cc23)ccc1O [(4E)-4-(5-chloro-1H-2,1-benzoxazol-3-ylidene)-2-methylcyclohexa-2,5-dien-1-one] |
| > 300 | COc1ccc(-c2cc(-c3ccco3)nc(O)c2C#N)cc1 [6-(furan-2-yl)-4-(4-methoxyphenyl)-2-oxidanylidene-1H-pyridine-3-carbonitrile] |
| > 300 | CCOC(=O)c1ccc(NC(=O)Nc2ccccn2)cc1 [MLS000679333] |
| > 300 | O=C(O)CCN1C(=O)/C(=C\c2ccc(-c3nc4ccccc4s3)o2)SC1=S [3-[(5E)-5-[[5-(1,3-benzothiazol-2-yl)-2-furanyl]methylidene]-4-oxo-2-sulfanylidene-3-thiazolidinyl]propanoic acid] |
| > 300 | COc1ccc(OC)c(CCNC(=O)c2ccc3c(=O)[nH]c4c(C(=O)NC(C)C)sc(=S)n4c3c2)c1 |
| 1.15 | COc1ccc(S(=O)(=O)Nc2c(C(=O)O)[nH]c3ccc(OC)cc23)c(OC)c1 [SMR000650153] |
| > 300 | Cc1c(O)c(CN2CCCCC2)cc2c1oc(=O)c1ccccc12 [MLS000551544] |
| 1.48 | COc1ccc(C(=O)c2sc(Nc3ccccc3F)nc2N)cc1 |
| > 300 | O=C(O)COc1ccc(C(=O)c2ccccc2)cc1 [2-[4-(phenylcarbonyl)phenoxy]ethanoic acid] |
